TGI data for eight compounds are collected here from PubChem BioAssay (NCI).

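Step 1: Grow cells in 96-well plates. Step 2: Expose to compound for 48 hours at 5 concentrations. Step 3: Interpolate endpoints linearly; if unreached, use highest concentration. Definition used: TGI = concentration required for complete inhibition of growth.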

Common to all, as to assay: DTP human tumour cell line panel, 48 h
Assay [1] concerns HCT-15 colon.
For assay [2], the system named is NCI/ADR-RES ovarian.
The subject of assay [3] is RXF 393 renal.
The subject of assay [4] is M14 melanoma.
Assay [5] has as its system NCI-H460 lung.
Assay [6] has as its system NCI-H522 lung.
The test system of assay [7] is UACC-257 melanoma.
The subject of assay [8] is 786-0 renal.
The subject of assay [9] is NCI-H226 lung.
In assay [10] the test system is HL-60(TB) leukemia.
The test system of assay [11] is UACC-62 melanoma.
Assay [12] deals with SNB-75 CNS.
Assay [13] deals with MCF7 breast.
The test system of assay [14] is SF-539 CNS.
The subject of assay [15] is EKVX NSCLC.
For assay [16], the system named is SK-OV-3 ovarian.
The subject of assay [17] is SNB-19 CNS.
The subject of assay [18] is BT-549 breast.

`CCOC(=O)[C@@H]1ON2O[C@H](OC3CCCC3(c3ccccc3)c3ccccc3)C[C@H]3OC(=O)[C@@H]1C32` (stereo not given in full): the total growth inhibition concentration (TGI) (in general, the concentration at which net growth stops) in [1] was > 100 µM; in assay [2], > 100 µM; in assay [3], 36.5 µM; in assay [4], > 100 µM; in assay [5] it was > 100 µM; in assay [6] it was > 100 µM. Further, the TGI in assay [7] is > 100 µM; in assay [8], > 100 µM; in assay [9], > 100 µM; in [10], 59.1 µM; in assay [11], > 100 µM; in [12], > 100 µM. The TGI in [13] was 91.4 µM; in assay [14] it was > 100 µM; in [15] it was > 100 µM; in assay [16], > 100 µM.

On to `C(=NCc1ccccc1)c1ccccc1-c1ccccc1C=NCc1ccccc1`, for which the TGI in assay [1], in assay [2], in assay [3], in assay [4], in assay [5] and in [6] was > 10 µM each time. Besides, the concentration for total growth inhibition (TGI) is 7.53 µM in [7]; > 10 µM in assay [8]; > 10 µM in [9]; 5.73 µM in assay [10]; > 10 µM in assay [11]; > 10 µM in assay [12]. In addition, the TGI in [13], in [14], in assay [17], in [15] and in [16] was > 10 µM in each case.

As to `Cc1ccc(Nc2nc(N)nc3c2ncn3C2OC(CO)C(O)C2O)cc1` (stereo not given), the TGI in assay [1], in [2], in assay [3], in assay [4], in [6] and in [7] was > 100 µM in each case. Besides, the TGI in [8], in [9], in assay [10], in assay [11], in assay [12] and in [13] was > 100 µM throughout. For the same compound, the concentration for total growth inhibition (TGI) in assay [14], in assay [17], in assay [15] and in [16] was > 100 µM throughout.

On to `CN(C)C(=O)Nc1cc2c3c(c1)CCCN3CCC2`, for which the TGI in assay [1], in assay [2], in assay [3], in [4], in assay [5] and in [6] was > 10 µM throughout. Further, the TGI in [7], in assay [8], in assay [9], in assay [10], in [11] and in assay [12] was > 10 µM in each case. For the same compound, the total growth inhibition concentration (TGI) in [13], in [14], in [17], in assay [15] and in [16] was > 10 µM throughout.

As for `O=c1[nH]c(=S)[nH]n1C(=S)n1[nH]c(=S)[nH]c1=O`, the total growth inhibition concentration (TGI) in assay [1], in [2], in assay [3], in [4], in assay [5] and in assay [6] was > 100 µM each time. Further, the total growth inhibition concentration (TGI) in assay [7], in [8], in [9], in [10], in assay [11] and in assay [12] was > 100 µM in each case. Also, the TGI is 40.6 µM in assay [13], > 100 µM in assay [14], > 100 µM in assay [17] and > 100 µM in [15].

With `O=C(O)c1ccc(Nc2nc3ccccc3nc2-c2cccs2)cc1`, the TGI in assay [1], in [2], in [3], in [18], in assay [5] and in [6] was > 100 µM throughout. Besides, the TGI in [7], in [8], in assay [9], in assay [10], in assay [11] and in [12] was > 100 µM throughout. Moreover, the TGI in assay [14], in assay [15] and in [16] was > 100 µM each time.

Take `CC/C=C/C(=O)CC(O)(C(F)(F)F)C(F)(F)F`: the TGI in [1], in assay [2], in assay [3], in assay [4], in assay [5] and in [7] was > 100 µM throughout. Further, the total growth inhibition concentration (TGI) in assay [8], in [9], in assay [10], in assay [11], in [12] and in assay [13] was > 100 µM in each case. Besides, the TGI in assay [14], in [17], in [15] and in [16] was > 100 µM throughout.

On to `OC(C/C(=N\N1CCCCC1)c1cccs1)(C(F)(F)F)C(F)(F)F`, for which the TGI in assay [1], in [2], in assay [3], in [4], in [5] and in assay [6] was > 10 µM each time. Besides, the TGI in assay [7], in assay [8], in [9], in assay [10], in assay [11] and in assay [12] was > 10 µM in each case. Moreover, the total growth inhibition concentration (TGI) in assay [13], in [14], in assay [17], in assay [15] and in assay [16] was > 10 µM in each case.
